Source: patent publication US8492368B2 (priority 2011, dated 2013)

Legend:
traumatic brain injury = conditions: cited from earlier work; for factors of cell death, brain swelling and inflammation: TBI
rats suffering from TBI = conditions: 16 mg/kg, 72 hours post-injury, moderate to severe brain injury, FIG. 1, p<0.05; cited from earlier work
severe TBI patients = conditions: six months; cited from earlier work
[1] = tested on: male reproductive function; conditions: males; cited from earlier work
P-glycoprotein (PGP) = test: P-glycoprotein protein abundance in penumbral region of injured brain, FIG. 6; type: in vivo, rodents; conditions: 72 hours post-injury, vs vehicle and sham, p<0.05, FIG. 6
[2] = tested on: rats that have suffered a concussion (mTBI); test: Morris Water Maze latency to platform in mTBI (concussion) model, FIG. 8; type: in vivo; conditions: vs vehicle-injured rats, p<0.05
glutathione reductase = conditions: 72 hours post-injury, compared to all other groups, FIG. 2, p<0.01; cited from earlier work
[3] = molecular target: T1, progesterone receptor (PR) (Homo sapiens, UniProt P06401); conditions: cited from earlier work
T1 sequence (P06401 1-933): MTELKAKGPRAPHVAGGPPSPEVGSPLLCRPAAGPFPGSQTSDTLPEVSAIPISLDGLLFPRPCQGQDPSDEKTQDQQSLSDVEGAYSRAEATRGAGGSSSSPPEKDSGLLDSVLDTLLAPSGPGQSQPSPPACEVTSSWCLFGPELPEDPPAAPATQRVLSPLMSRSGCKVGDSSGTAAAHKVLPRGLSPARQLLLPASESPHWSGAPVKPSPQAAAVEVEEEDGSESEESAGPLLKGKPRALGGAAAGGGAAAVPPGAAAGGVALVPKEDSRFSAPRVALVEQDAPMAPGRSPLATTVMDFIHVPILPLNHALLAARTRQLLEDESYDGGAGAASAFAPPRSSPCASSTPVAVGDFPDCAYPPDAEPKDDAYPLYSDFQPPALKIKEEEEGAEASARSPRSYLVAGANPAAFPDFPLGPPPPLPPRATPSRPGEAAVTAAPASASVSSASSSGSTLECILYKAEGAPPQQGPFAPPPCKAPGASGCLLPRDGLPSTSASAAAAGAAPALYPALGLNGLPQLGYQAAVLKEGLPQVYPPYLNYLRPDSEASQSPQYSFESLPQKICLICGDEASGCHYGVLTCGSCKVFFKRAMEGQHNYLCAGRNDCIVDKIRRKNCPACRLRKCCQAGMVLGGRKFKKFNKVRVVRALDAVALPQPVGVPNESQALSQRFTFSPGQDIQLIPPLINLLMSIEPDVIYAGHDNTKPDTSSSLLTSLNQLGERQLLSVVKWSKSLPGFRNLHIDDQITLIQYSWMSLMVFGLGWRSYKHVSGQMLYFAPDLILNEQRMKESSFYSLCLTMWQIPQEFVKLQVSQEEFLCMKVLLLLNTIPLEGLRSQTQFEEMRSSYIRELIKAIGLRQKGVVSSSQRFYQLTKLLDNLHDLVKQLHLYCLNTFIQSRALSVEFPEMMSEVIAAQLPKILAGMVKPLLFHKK

| Structure (SMILES) | factors of cell death (caspase-3) and gliosis (GFAP) (traumatic brain injury; following injury) | brain water content (measure of edema) (rats suffering from TBI) | neurological outcomes long-term (severe TBI patients) | factors of cell death, brain swelling and inflammation (traumatic brain injury) | edema (traumatic brain injury; both rodent sexes following injury) | genes promoting the inflammatory cascade: Bcl-2, IL-1β and Cxcl-10 (traumatic brain injury; following TBI, previous study) | inflammatory factors (TNF-α and IL-1β) (traumatic brain injury; following injury) | Neurological Severity Score (motor and cognitive functioning) (traumatic brain injury; rats following injury) | conversion of testosterone to dihydrotestosterone [1] | size of reproductive organs [1] | spermatogenesis [1] | protein abundance of P-glycoprotein (PGP) (P-glycoprotein (PGP)) | latency to platform, post-acute administration ([2]; 15 minutes post mTBI (1 hour post)) | latency to platform, prophylactic administration ([2]; 15 minutes prior to mTBI (1 hour prior)) | anti-oxidant activity of glutathione reductase (glutathione reductase) | activation of PR-mediated transcription [3] |
| --- | --- | --- | --- | --- | --- | --- | --- | --- | --- | --- | --- | --- | --- | --- | --- | --- |
| CC(=O)[C@H]1CC[C@H]2[C@@H]3CC[C@H]4C[C@H](O)CC[C@]4(C)[C@H]3CC[C@]12C [ALLO, allopregnanolone] | decreased | normalizes brain water content | – | – | – | – | – | – | – | – | – | – | – | – | – | – |
| CC(=O)[C@H]1CC[C@H]2[C@@H]3CCC4=CC(=O)CC[C@]4(C)[C@H]3CC[C@]12C [Prog, progesterone] | decreased | normalizes brain water content | better neurological outcomes | equivalently reduce | effectively attenuates | down-regulated | inhibiting | significant improvements | inhibits | reduces | suppresses | increase | decreases latency to platform | decreases latency to platform | – | – |
| CC(=O)[C@@H]1CC[C@@H]2[C@H]3CCC4=CC(=O)CC[C@@]4(C)[C@@H]3CC[C@]21C [ent-Prog, ent-progesterone] | – | normalizes brain water content | – | equivalently reduce | – | – | – | – | – | – | – | increase | – | – | significantly increases | does not activate |
